# Laboratory results published in patent US11890348B2, “Localized delivery of anti-fugetactic agent for treatment of cancer” (THE GENERAL HOSPITAL CORPORATION, priority 2015, dated 2024).
# Tests used:
# [1] = tested on: human CD3+ T cells
# Procedure: Freshly prepared and purified human CD3^+ T cells were prepared from healthy donor peripheral blood. 20,000 T cells were loaded into the upper chamber of the Transwell in control, chemotactic or fugetactic settings with AMD3100 at concentrations between 0.1 μM and 10 μM. Migrated cells were counted in the lower chamber and migration quantitated as previously described. Vianello et al. The Journal of Immunology, 2006, 176: 2902-2914; Righi et al., Cancer Res.; 71(16): 5522-34, each of which is incorporated herein in its entirety.
# All wells were run in triplicate.
# [2] = tested on: human CD3 T cells; details: T cells incubated with 0.01 μM to 10 mM AMD3100 before addition to the chamber; harvest after 3 h
# Procedure: For quantitative transmigration assays, purified human CD3′ T cells (approximately 2×10^4 cells) are added to the upper chamber of a Transwell®, insert in each well, to a total volume of 150 μl of Iscove's modified medium.
# To determine the anti-fugetactic concentration of AMD3100, the T cells are incubated with 0.01 μM to 10 mM AMD3100 prior to addition to the chamber.
# Cells are harvested from the lower chamber after 3 h, and cell counts are performed using a hemocytometer.
structure (smiles),measurement,setting,value
c1cc(CN2CCCNCCNCCCNCC2)ccc1CN1CCCNCCNCCCNCC1 [AMD3100],effect on human T cell chemotaxis,"[1]; FIG. 1, AMD3100 0.1 μM to 10 μM",bimodal effect
same,effect on human T cell fugetaxis,"[1]; FIG. 2, AMD3100 0.1 μM to 10 μM, antifugetactic properties observed in a specific range",bimodal effect
same,"chemotactic index (CI), chemotactic response","[1]; chemotactic setting, AMD3100 at 1 μM, CI of 1.0 is the control, FIG. 1, triplicate wells",2.3
same,"chemotactic index (CI), fugetactic response","[1]; fugetactic setting, AMD3100 at 0.1 μM, CI of 1.0 is the control, FIG. 2, triplicate wells",1.6
same,"effect on T cell migration (anti-fugetactic at lower, fugetactic at higher concentrations)",[2],bimodal effect
